Assay results reported in patent US8969325B2, “TRPV1 antagonists” (AbbVie Inc., priority 2011, dated 2015).

Tests used:
human TRPV1 [1] = molecular target: T1, human TRPV1 (Homo sapiens (Human), UniProt Q8NER1); experiment: Acid Activation Assay (pH 5.0, intracellular Ca2+, FLIPR); type: cell-based; settings: percentage of the maximal pH 5.0-induced response remaining; recombinant HEK293 hTRPV1 cells; maximum concentration tested 37.5 μM
Summary of the method: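 HEK293 cells stably expressing recombinant hTRPV1, loaded with Calcium-4 dye 90-120 min at 25° C. Compounds added over a 12-point half-log range (top 37.5 μM), then pH 5.0 DPBS/MES challenge after 3 min; FLIPR peak fluorescence over baseline given as % of maximal pH 5.0 response.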

human TRPV1 [2] = molecular target: T1, human TRPV1; experiment: Capsaicin Activation Assay (intracellular Ca2+, FLIPR); type: cell-based; settings: recombinant HEK293 cells expressing hTRPV1, 50 nM capsaicin
Summary of the method: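 Stably transfected HEK293 cells expressing human TRPV1 cDNA, plated the day before in poly-D-lysine plates. Compounds serially diluted from 10 mM DMSO stocks; intracellular Ca2+ fluorescence read on FLIPR at 1 to 5 second intervals.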

T1 sequence (Q8NER1 whole entry): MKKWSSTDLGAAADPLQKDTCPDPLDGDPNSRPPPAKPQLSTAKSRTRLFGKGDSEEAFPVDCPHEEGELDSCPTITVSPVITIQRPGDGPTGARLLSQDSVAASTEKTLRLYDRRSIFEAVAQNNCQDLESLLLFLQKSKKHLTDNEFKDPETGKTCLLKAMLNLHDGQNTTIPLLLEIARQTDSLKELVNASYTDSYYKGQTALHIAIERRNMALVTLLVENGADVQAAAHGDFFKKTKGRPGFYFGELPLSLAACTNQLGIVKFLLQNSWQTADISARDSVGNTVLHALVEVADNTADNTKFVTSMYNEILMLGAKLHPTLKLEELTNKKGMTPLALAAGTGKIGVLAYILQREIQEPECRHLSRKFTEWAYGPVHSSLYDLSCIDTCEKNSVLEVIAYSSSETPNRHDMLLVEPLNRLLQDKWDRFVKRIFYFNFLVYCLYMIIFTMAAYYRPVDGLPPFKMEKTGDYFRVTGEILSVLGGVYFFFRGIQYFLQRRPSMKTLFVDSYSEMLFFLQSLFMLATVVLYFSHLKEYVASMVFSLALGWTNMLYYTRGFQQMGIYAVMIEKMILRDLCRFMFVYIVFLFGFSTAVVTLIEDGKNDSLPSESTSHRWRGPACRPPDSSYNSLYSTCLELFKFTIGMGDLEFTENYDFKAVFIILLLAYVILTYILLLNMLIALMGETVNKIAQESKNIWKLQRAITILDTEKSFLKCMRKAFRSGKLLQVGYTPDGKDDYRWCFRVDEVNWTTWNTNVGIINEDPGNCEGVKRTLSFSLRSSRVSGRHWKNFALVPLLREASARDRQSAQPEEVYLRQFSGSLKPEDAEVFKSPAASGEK

SMILES | human TRPV1 H^+ (max % remain) (human TRPV1 [1]) [%] | IC50 (human TRPV1 [2]) [nM]
CC1(C)C[C@@H](NC(=O)Nc2ccc3c(c2)NC(=O)N(CCO)C3)c2cccc(C(F)(F)F)c2O1 [Example 307, 1-[(4R)-2,2-dimethyl-8-(trifluoromethyl)-3,4-dihydro-2H-chromen-4-yl]-3-[3-(2-hydroxyethyl)-2-oxo-1,2,3,4-tetrahydroquinazolin-7-yl]urea] | 37 | 1300
O=C(Nc1ccc2c(c1)NC(=O)N(CCO)C2)N[C@@H]1CCOc2ccccc21 [Example 308, 1-[(4R)-3,4-dihydro-2H-chromen-4-yl]-3-[3-(2-hydroxyethyl)-2-oxo-1,2,3,4-tetrahydroquinazolin-7-yl]urea] | 3 | 68
O=C(Nc1ccc2c(c1)NC(=O)N(CCO)C2)N[C@@H]1CC(CF)(CF)Oc2cc(C(F)(F)F)ccc21 [Example 309, 1-[(4R)-2,2-bis(fluoromethyl)-7-(trifluoromethyl)-3,4-dihydro-2H-chromen-4-yl]-3-[3-(2-hydroxyethyl)-2-oxo-1,2,3,4-tetrahydroquinazolin-7-yl]urea] | 36 | 18000
CCCC1(CCC)C[C@@H](NC(=O)Nc2ccc3c(c2)NC(=O)N(CCO)C3)c2cc(F)ccc2O1 [Example 310, 1-[(4R)-6-fluoro-2,2-dipropyl-3,4-dihydro-2H-chromen-4-yl]-3-[3-(2-hydroxyethyl)-2-oxo-1,2,3,4-tetrahydroquinazolin-7-yl]urea] | 2 | 190
CCCC1(CCC)C[C@@H](NC(=O)Nc2ccc3c(c2)NC(=O)N(CCO)C3)c2cccc(F)c2O1 [Example 311, 1-[(4R)-8-fluoro-2,2-dipropyl-3,4-dihydro-2H-chromen-4-yl]-3-[3-(2-hydroxyethyl)-2-oxo-1,2,3,4-tetrahydroquinazolin-7-yl]urea] | 14 | 150
CC1(C)C[C@@H](NC(=O)Nc2ccc3c(c2)NC(=O)N(CCO)C3)c2ccc(F)c(Cl)c2O1 [Example 312, 1-[(4R)-8-chloro-7-fluoro-2,2-dimethyl-3,4-dihydro-2H-chromen-4-yl]-3-[3-(2-hydroxyethyl)-2-oxo-1,2,3,4-tetrahydroquinazolin-7-yl]urea] | 36 | 200
CC1(C)C[C@@H](NC(=O)Nc2ccc3c(c2)NC(=O)N(CCO)C3)c2ccc(Cl)cc2O1 [Example 313, 1-[(4R)-7-chloro-2,2-dimethyl-3,4-dihydro-2H-chromen-4-yl]-3-[3-(2-hydroxyethyl)-2-oxo-1,2,3,4-tetrahydroquinazolin-7-yl]urea] | 4 | 76
O=C(Nc1ccc2c(c1)NC(=O)N(CCO)C2)N[C@@H]1CC(CF)(CF)Oc2ccccc21 [Example 314, 1-[(4R)-2,2-bis(fluoromethyl)-3,4-dihydro-2H-chromen-4-yl]-3-[3-(2-hydroxyethyl)-2-oxo-1,2,3,4-tetrahydroquinazolin-7-yl]urea] | 0 | 57
O=C(Nc1ccc2c(c1)NC(=O)N(CCO)C2)N[C@@H]1CC(CF)(CF)Oc2c(F)cccc21 [Example 315, 1-[(4R)-8-fluoro-2,2-bis(fluoromethyl)-3,4-dihydro-2H-chromen-4-yl]-3-[3-(2-hydroxyethyl)-2-oxo-1,2,3,4-tetrahydroquinazolin-7-yl]urea] | 18 | 830
O=C(Nc1ccc2c(c1)NC(=O)N(CCO)C2)N[C@@H]1CC(CF)(CF)Oc2cc(Cl)ccc21 [Example 316, 1-[(4R)-7-chloro-2,2-bis(fluoromethyl)-3,4-dihydro-2H-chromen-4-yl]-3-[3-(2-hydroxyethyl)-2-oxo-1,2,3,4-tetrahydroquinazolin-7-yl]urea] | 20 | 1900
O=C(Nc1ccc2c(c1)NC(=O)N(CCO)C2)N[C@@H]1CC2(CCCC2)Oc2ccccc21 [Example 317, 1-[(4R)-3,4-dihydrospiro[chromene-2,1′-cyclopentan]-4-yl]-3-[3-(2-hydroxyethyl)-2-oxo-1,2,3,4-tetrahydroquinazolin-7-yl]urea] | 17 | 600
